In patent US9220264B2, “Multimeric forms of antimicrobial peptides” (Singapore Health Services Pte Ltd., priority 2008, dated 2015):
Values after ≈ are worked out from the molar mass of the structure shown. Where two headings read alike, the source gives them in different places. Bridge positions count the residues as written; N and C are the ends. Peptide text beside a SMILES is read from it. I, II: the chains in the order shown.

Columns and labels:
[1] = tested on: Clinical Staphylococcus aureus DM4001 Source: Eye; assay type: cell-based
Procedure: (§1) MICs was determined by broth macrodilution method modified from that described by the National Committee for Clinical Laboratory Standards (NCCL). The Mueller Hinton Broth (MHB) at ⅙ strength and without addition of Ca^2+ and Mg^2+ was used for dilution. Serial twofold dilutions of V2 dimer solution was prepared in MHB (⅙ strength) in test tubes. 1 ml of inoculum of test organisms in MHB (⅙ strength) was added to 1 ml of each dilution of V2 dimer to yield as final concentration of 10^4 to 10^5 colony forming units/ml in each test tube. The tubes were incubated at 35° C. for 16 to 20 hours. A positive control containing only the broth and organism, and a negative control tube containing only the broth were also incubated in parallel to the test samples. The above was repeated for each different test organism in separate experiments. The MIC of V2 dimer peptide for each clinical isolate or reference organism was read as the lowest concentration of peptide that inhibited visible growth of the test organism.
(§2) The MIC was also determined for other peptides and compared to gentamicin.

[2] = tested on: Clinical Pseudomonas aeruginosa DM 023155 Source: Eye; assay type: cell-based; settings: Clinical DM 023155 Source: Eye
Procedure: as §1, §2

[3] = tested on: Clinical Escherichia coli DU46381R Source: Urine; assay type: cell-based
Procedure: as §1, §2

[4] = tested on: Clinical Pseudomonas aeruginosa PAE 230 DR4877/07 Source: Sputum; assay type: cell-based
Procedure: as §1, §2

[5] = tested on: Clinical Pseudomonas aeruginosa PAE 240 DU14476/07 Source: Urine; assay type: cell-based; settings: Clinical PAE 240 DU14476/07 Source: Urine
Procedure: as §1, §2

[6] = tested on: Clinical Pseudomonas aeruginosa 07DM 023257 Source: Eye; assay type: cell-based; settings: Clinical 07DM 023257 Source: Eye
Procedure: as §1, §2

[7] = tested on: Clinical Pseudomonas aeruginosa DM 023104 Source: Eye; assay type: cell-based; settings: Clinical DM 023104 Source: Eye
Procedure: as §1, §2

[8] = tested on: Clinical Pseudomonas aeruginosa PAE 239 DM5790/07 Source: Wound; assay type: cell-based
Procedure: as §1, §2

[9] = tested on: Clinical Escherichia coli DB16027 Source: Blood; assay type: cell-based
Procedure: as §1, §2

[10] = tested on: Clinical Pseudomonas aeruginosa 07DM023376 Source: Eye; assay type: cell-based; settings: Clinical 07DM023376 Source: Eye
Procedure: as §1, §2

[11] = tested on: Clinical Pseudomonas aeruginosa PAE 249 DM15013 Source: Wound; assay type: cell-based; settings: Clinical PAE 249 DM15013 Source: Wound
Procedure: as §1, §2

[12] = tested on: Fusarium solani ATCC 36031; assay type: cell-based
Procedure: as §1, §2

[13] = tested on: Candida albicans ATCC10231; assay type: cell-based
Procedure: as §1, §2

[14] = tested on: Escherichia coli ATCC25922; assay type: cell-based
Procedure: as §1, §2

[15] = tested on: Clinical Cadida albicans DF2672R Source: Urine; assay type: cell-based, Candida albicans
Procedure: as §1, §2

[16] = tested on: human conjunctival epithelial cells; assay type: cell-based
Procedure: The results are from four independent experiments and data points show the mean and standard deviations. The X axis indicates the peptide concentration in μg/ml and the Y axis indicates the % cell viability. The cytotoxicity of V2 dimer were tested against human conjunctival cells according to the method described in WO 2007/126392 and compared with native hBD3. […] Wildtype hBD3 was cytotoxic at concentrations of about 15 μg/ml, however, the V2 dimer was not cytotoxic at concentrations of 100 μg/ml.

[17] = tested on: Methicillin-resistant staphylococcus aureus (MRSA) DM09808R Source: Eye; assay type: cell-based; settings: MHB 1/6 strength; 35° C.; 16 to 20 hours
Procedure: as §1, §2

[18] = tested on: Clinical Pseudomonas aeruginosa PA4-PAE 249 DM15013 Source: Wound; assay type: cell-based; settings: USP Phosphate Buffer pH 7.2, 4 hrs, 35° C.
Procedure: (§3) The method for testing antimicrobial activity of antimicrobial peptides used an absolute killing procedure as described below. The bacterial cultures were grown on Trypticase Soy Agar (TSA) […], and the yeast culture on Sabouraud Dextrose Agar ([…] 35° C. for 16 hours. The organisms were harvested by centrifugation and washing twice in Phosphate buffer, pH 7.2 (United States Pharmacopeia, USP) at 20° C. The freeze-dried antimicrobial compound was dissolved in purified water and distributed into screw-capped plastic tubes at a concentration of 1,000 micro-grams (μg) per ml. These served as stock solutions and were kept at -20° C. On the day of conducting the test, one tube of the stock solution was defrosted and diluted in purified water to a concentration of 500 μg/ml. Thereafter, further dilutions were carried out in either USP Phosphate Buffer, pH 7.2 or other solutions (including but not limited to 10 mM sodium phosphate buffer, pH 7.4, 10 mM potassium buffer 7.2 or 155.2 mM NaCl), to the test concentrations required, normally ranging from 6.25 μg/ml to 50 μg/ml. Ten micro-liters (μl) of the test organism of standardised concentration was inoculated into one ml of the compound test solution of specific test concentration to provide a final count of between 1×10^5 cfu/ml and 1×10^6 cfu/ml as far as possible. The inoculated test solutions were than incubated at 35° C. for 4 hours. The incubation temperature and time may be varied as required. After incubation, the antimicrobial activity of the test solutions was inactivated by a 10-fold dilution in D/E Neutralising Broth (NB). Further dilutions were carried out in the NB, and plated out in TSA for bacteria, and SDA for yeast culture. The plates were incubated at 35° C. for 72 hours. The viable count of the survivor organisms was then determined. As an inoculum control, the test organism was inoculated, parallel to the Test, into the buffer used in the preparation of the test solutions instead and incubated under the same condition as the Test. The viable count of the inoculum control was determined as for the Test. […] The method described above was used for Examples 3-7 and in particular, the method for gentamicin in Example 6 is similar except that gentamicin was substituted for the antimicrobial compound.

[19] = tested on: Clinical Pseudomonas aeruginosa Ps-C 07DM023155 Source: Eye; assay type: cell-based; settings: USP Phosphate Buffer pH 7.2, 4 hrs, 35° C.
Procedure: as §3

[20] = tested on: Clinical Pseudomonas aeruginosa PA2-PAE 239 DM5790/07 Source: Wound; assay type: cell-based; settings: USP Phosphate Buffer pH 7.2, 4 hrs, 35° C.
Procedure: as §3

[21] = tested on: Clinical Pseudomonas aeruginosa PA1-PAE 230 DR4877/07 Source: Sputum; assay type: cell-based; settings: USP Phosphate Buffer pH 7.2, 4 hrs, 35° C.
Procedure: as §3

[22] = tested on: Clinical Pseudomonas aeruginosa Ps-D 07DM023104 Source: Eye; assay type: cell-based; settings: USP Phosphate Buffer pH 7.2, 4 hrs, 35° C.
Procedure: as §3

[23] = tested on: Clinical Pseudomonas aeruginosa PA3-PAE 240 DU14476/07 Source: Urine; assay type: cell-based; settings: USP Phosphate Buffer pH 7.2, 4 hrs, 35° C.
Procedure: as §3

[24] = Clinical PAE 230 DR4877/07 Source: Sputum
[25] = Clinical PAE 239 DM5790/07 Source: Wound
[26] = MHB 1/6 strength, 35° C., 16 to 20 hours

For `N=C(N)NCCC[C@H](NC(=O)CNC(=O)[C@@H](N)CCCNC(=N)N)C(=O)N[C@@H](CCCCN)C(=O)N[C@@H](Cc1ccc(O)cc1)C(=O)N[C@@H](Cc1ccc(O)cc1)C(=O)N[C@@H](CCCNC(=N)N)C(=O)N[C@@H](CCCNC(=N)N)C(=O)NCCCC[C@H](NC(=O)[C@H](CCCNC(=N)N)NC(=O)[C@H](CCCNC(=N)N)NC(=O)[C@H](Cc1ccc(O)cc1)NC(=O)[C@H](Cc1ccc(O)cc1)NC(=O)[C@H](CCCCN)NC(=O)[C@H](CCCNC(=N)N)NC(=O)CNC(=O)[C@@H](N)CCCNC(=N)N)C(=O)N[C@@H](CCCCN)C(=O)O` [Y2-dimer] (I: H-RGRKYYRRKK-OH / II: H-RGRKYYRR; amide I:9-II:C; N-terminus assumed), the MIC [1] was 12.5 µg/mL (≈ 4.91 µM), the MIC [2] was 25 µg/mL (≈ 9.82 µM) and the MIC [3] was 12.5 µg/mL (≈ 4.91 µM). The MIC [4, 24] was 12.5 µg/mL (≈ 4.91 µM), the MIC [5] was 6.25 µg/mL (≈ 2.45 µM) and the MIC [6] was 12.5 µg/mL (≈ 4.91 µM). For the same compound, the MIC [7] was 12.5 µg/mL (≈ 4.91 µM), the MIC [8, 25] was 12.5 µg/mL (≈ 4.91 µM) and the MIC ([9]; Clinical DB16027 Source: Blood) was 6.25 µg/mL (≈ 2.45 µM). It also gave an MIC [10] of 25 µg/mL (≈ 9.82 µM), an MIC [11] of 12.5 µg/mL (≈ 4.91 µM) and an MIC [12] of 12.5 µg/mL (≈ 4.91 µM). For the same compound, the MIC [13] was 25 µg/mL (≈ 9.82 µM), the MIC [14] was 12.5 µg/mL (≈ 4.91 µM) and the MIC [15] was 12.5 µg/mL (≈ 4.91 µM).
`N=C(N)NCCC[C@H](NC(=O)CNC(=O)[C@@H](N)CCCNC(=N)N)C(=O)N[C@@H](CCCCN)C(=O)N[C@@H](Cc1ccc(O)cc1)C(=O)N[C@@H](Cc1ccc(O)cc1)C(=O)N[C@@H](CCCNC(=N)N)C(=O)N[C@@H](CCCNC(=N)N)C(=O)N[C@@H](Cc1ccc(O)cc1)C(=O)N[C@@H](Cc1ccc(O)cc1)C(=O)O` [Y4 monomer, RGRKYYRRYY] (H-RGRKYYRRYY-OH; N-terminus and C-terminus assumed) showed an MIC [1] of 12.5 µg/mL (≈ 8.44 µM), an MIC [2] of 25 µg/mL (≈ 16.9 µM) and an MIC [3] of 12.5 µg/mL (≈ 8.44 µM). The MIC [4, 24] was >50 µg/mL, the MIC [5] was 25 µg/mL (≈ 16.9 µM) and the MIC [6] was >50 µg/mL. For the same compound, the MIC [7] was 50 µg/mL (≈ 33.8 µM), the MIC [8, 25] was 50 µg/mL (≈ 33.8 µM) and the MIC ([9]; Clinical DB16027 Source: Blood) was 6.25 µg/mL (≈ 4.22 µM). The MIC [10] was >50 µg/mL, the MIC [11] was 50 µg/mL (≈ 33.8 µM) and the MIC [12] was 12.5 µg/mL (≈ 8.44 µM). It also gave an MIC [13] of 12.5 µg/mL (≈ 8.44 µM), an MIC [14] of 12.5 µg/mL (≈ 8.44 µM) and an MIC [15] of 25 µg/mL (≈ 16.9 µM).
In the case of “GIINTLQKYYCRVRGGRCAVLSCLPKEEQIGKCSTRGRKCCRRKK (Homo sapien) [Wildtype hBD3, reference compound]”, the “concentration at which cytotoxic” value [16] is reported as “about 15 μg/ml”.
Gentamicin showed an MIC [4, 26] of 400 µg/mL, an MIC [8, 26] of 25 µg/mL and an MIC [9, 26] of 0.78 µg/mL. The MIC [17] was 12.5 µg/mL, the “Log Reduction” value ([18]; 3.125 ug/ml) was 2.28 and the “Log Reduction” value ([18]; 6.25 ug/ml) was 2.41. The “Log Reduction” value ([18]; 12.5 ug/ml) was 2.50, the “Log Reduction” value ([18]; 25.0 ug/ml) was 2.60 and the “Log Reduction” value ([18]; 50.0 ug/ml) was 2.63. The “Log Reduction” value ([19]; 3.125 ug/ml) was >4.61, the “Log Reduction” value ([19]; 6.25 ug/ml) was >4.61 and the “Log Reduction” value ([19]; 12.5 ug/ml) was >4.61. The “Log Reduction” value ([19]; 25.0 ug/ml) was >4.61, the “Log Reduction” value ([19]; 50.0 ug/ml) was >4.61 and the “Log Reduction” value ([20]; 3.125 ug/ml) was 3.02. For the same compound, the “Log Reduction” value ([20]; 6.25 ug/ml) was 3.07, the “Log Reduction” value ([20]; 12.5 ug/ml) was 3.03 and the “Log Reduction” value ([20]; 25.0 ug/ml) was 3.04. For the same compound, the “Log Reduction” value ([20]; 50.0 ug/ml) was 3.31, the “Log Reduction” value ([21]; 3.125 ug/ml) was 0.22 and the “Log Reduction” value ([21]; 6.25 ug/ml) was 0.35. The “Log Reduction” value ([21]; 12.5 ug/ml) was 0.65, the “Log Reduction” value ([21]; 25.0 ug/ml) was 0.54 and the “Log Reduction” value ([21]; 50.0 ug/ml) was 0.39. The “Log Reduction” value ([22]; 3.125 ug/ml) was >4.33, the “Log Reduction” value ([22]; 6.25 ug/ml) was >4.33 and the “Log Reduction” value ([22]; 12.5 ug/ml) was >4.33. For the same compound, the “Log Reduction” value ([22]; 25.0 ug/ml) was >4.33, the “Log Reduction” value ([22]; 50.0 ug/ml) was >4.33 and the “Log Reduction” value ([23]; 3.125 ug/ml) was 3.66. For the same compound, the “Log Reduction” value ([23]; 6.25 ug/ml) was 3.76, the “Log Reduction” value ([23]; 12.5 ug/ml) was 3.88 and the “Log Reduction” value ([23]; 25.0 ug/ml) was 4.18. For the same compound, the “Log Reduction” value ([23]; 50.0 ug/ml) was 4.57.
